# Experiment: Volume of distribution at steady state in rat at 1 mg/kg, iv or 5 mg/kg, po
# Assay type: ADME, organism-based
# Settings: in vivo, read-out: Vdss
row,Structure (SMILES),Vd [L/kg]
1,CCc1nc(N)nc(N)c1-c1ccc2c(c1)N(CCNC(=O)CO)C(=O)C(C)(c1cc(F)cc(F)c1)O2 (stereo not given),2.9
2,CCc1nc(N)nc(N)c1-c1ccc2c(c1)N(CCCO)C(=O)C(C)(c1cc(F)cc(F)c1)O2 (stereo not given),3.1
3,CCc1nc(N)nc(N)c1-c1ccc2c(c1)N(CCCOC)C(=O)C(C)(c1cc(F)cc(F)c1)O2 (racemic),4.5

# The next lines start with the values.
row,Vd [L/kg],Structure (SMILES)
1,2.1,CCc1nc(N)nc(N)c1-c1ccc2c(c1)N(CCC(=O)NC)C(=O)C(C)(c1cc(F)cc(F)c1)O2 (stereo not given)
2,2.1,CCc1nc(N)nc(N)c1-c1ccc2c(c1)N(CCNC(C)=O)C(=O)C(C)(c1cc(F)cc(F)c1)O2 (stereo in doubt; 26)

# Experiment: Cmax in rat at 1 mg/kg, iv or 5 mg/kg, po
# Assay type: ADME, organism-based
# Settings: in vivo
row,Cmax [ng/mL],Structure (SMILES)
1,180,CCc1nc(N)nc(N)c1-c1ccc2c(c1)N(CCCO)C(=O)C(C)(c1cc(F)cc(F)c1)O2 (stereo not given)
2,23,CCc1nc(N)nc(N)c1-c1ccc2c(c1)N(CCCOC)C(=O)C(C)(c1cc(F)cc(F)c1)O2 (racemic)
3,220,CCc1nc(N)nc(N)c1-c1ccc2c(c1)N(CCNC(C)=O)C(=O)C(C)(c1cc(F)cc(F)c1)O2 (stereo in doubt; 26)

# Experiment: Bioavailability in rat at […], po
# Assay type: ADME, organism-based
# Settings: in vivo
row,bioavailability [%],Structure (SMILES)
1,0,CCOCCCN1C(=O)C(C)(c2cc(F)cc(F)c2)Oc2ccc(-c3c(N)nc(N)nc3CC)cc21 (stereo not given)
2,14,CCNC(=O)CN1C(=O)C(C)(c2cc(F)cc(F)c2)Oc2ccc(-c3c(N)nc(N)nc3CC)cc21 (stereo not given)

# Experiment: Volume of distribution at steady state in rat at […], iv or […], po
# Assay type: ADME, organism-based
# Settings: in vivo, read-out: Vdss
row,Vd [L/kg],Structure (SMILES)
1,2,CCOCCCN1C(=O)C(C)(c2cc(F)cc(F)c2)Oc2ccc(-c3c(N)nc(N)nc3CC)cc21 (stereo not given)
2,3.1,CCNC(=O)CN1C(=O)C(C)(c2cc(F)cc(F)c2)Oc2ccc(-c3c(N)nc(N)nc3CC)cc21 (stereo not given)

# Experiment: in vivo
# Settings: rat, iv, 1 mg/kg
row,Structure (SMILES),Vd [L/kg]
1,CCc1nc(N)nc(N)c1-c1ccc2c(c1)N(CCO)C(=O)C(C)(c1cc(F)cc(F)c1)O2 (stereo not given),3.3
2,CCc1nc(N)nc(N)c1-c1ccc2c(c1)N(CCCOC(F)(F)F)C(=O)C(C)(c1cc(F)cc(F)c1)O2 (stereo not given),6.3
3,CCc1nc(N)nc(N)c1-c1ccc2c(c1)N(CCCC(F)(F)F)C(=O)[C@](C)(c1cc(F)cc(F)c1)O2,5.7
4,CCc1nc(N)nc(N)c1-c1ccc2c(c1)N(CCCC#N)C(=O)C(C)(c1cc(F)cc(F)c1)O2 (stereo not given),1.9

# Now from value to compound:
row,Vd [L/kg],Structure (SMILES)
1,3.5,CCc1nc(N)nc(N)c1-c1ccc2c(c1)N(CCNC(=O)OC)C(=O)C(C)(c1cc(F)cc(F)c1)O2 (stereo not given)
2,2.3,CCc1nc(N)nc(N)c1-c1ccc2c(c1)N(CCCCO)C(=O)C(C)(c1cc(F)cc(F)c1)O2 (stereo not given)
3,5.1,CCc1nc(N)nc(N)c1-c1ccc2c(c1)N(CCCC(F)(F)F)C(=O)C(C)(c1cc(F)cc(F)c1)O2 (racemic)

# Experiment: in vivo
# Settings: rat, po, 10 mg/kg
row,Structure (SMILES),bioavailability [%]
1,CCc1nc(N)nc(N)c1-c1ccc2c(c1)N(CCCOC(F)(F)F)C(=O)C(C)(c1cc(F)cc(F)c1)O2 (stereo not given),28
2,CCc1nc(N)nc(N)c1-c1ccc2c(c1)N(CCCC(F)(F)F)C(=O)[C@](C)(c1cc(F)cc(F)c1)O2,74
3,CCc1nc(N)nc(N)c1-c1ccc2c(c1)N(CCCC#N)C(=O)C(C)(c1cc(F)cc(F)c1)O2 (stereo not given),12

# Results, then the compound that gave them:
row,bioavailability [%],Structure (SMILES)
1,34,CCc1nc(N)nc(N)c1-c1ccc2c(c1)N(CCNC(=O)OC)C(=O)C(C)(c1cc(F)cc(F)c1)O2 (stereo not given)
2,7,CCc1nc(N)nc(N)c1-c1ccc2c(c1)N(CCCCO)C(=O)C(C)(c1cc(F)cc(F)c1)O2 (stereo not given)
3,12,CCc1nc(N)nc(N)c1-c1ccc2c(c1)N(CCCC(F)(F)F)C(=O)C(C)(c1cc(F)cc(F)c1)O2 (racemic)

# Experiment: Bioavailability in rat at 5 mg/kg, po
# Assay type: ADME, organism-based
# Settings: in vivo
row,bioavailability [%],Structure (SMILES)
1,44,CCc1nc(N)nc(N)c1-c1ccc2c(c1)N(CCCO)C(=O)C(C)(c1cc(F)cc(F)c1)O2 (stereo not given)
2,0.4,CCc1nc(N)nc(N)c1-c1ccc2c(c1)N(CCCOC)C(=O)C(C)(c1cc(F)cc(F)c1)O2 (racemic)
3,8,CCc1nc(N)nc(N)c1-c1ccc2c(c1)N(CCNC(C)=O)C(=O)C(C)(c1cc(F)cc(F)c1)O2 (stereo in doubt; 26)

# Experiment: physchem
# Settings: aqueous, pH 6.5, Solubility
row,Structure (SMILES),solubility [µg/mL]
1,CCc1nc(N)nc(N)c1-c1ccc2c(c1)N(CCO)C(=O)C(C)(c1cc(F)cc(F)c1)O2 (stereo not given),89
2,CCc1nc(N)nc(N)c1-c1ccc2c(c1)N(CCNC(C)=O)C(=O)[C@@](C)(c1ccccc1)O2,40
3,CCc1nc(N)nc(N)c1-c1ccc2c(c1)N(CCCOC)C(=O)C(CC)(CC)O2,16
4,CCc1nc(N)nc(N)c1-c1ccc2c(c1)N(CCNC(=O)CO)C(=O)C(C)(c1cc(F)cc(F)c1)O2 (stereo not given),59
5,CCc1nc(N)nc(N)c1-c1ccc2c(c1)N(CCCOC)C(=O)C(C)(CC)O2 (stereo not given),54
6,CCc1nc(N)nc(N)c1-c1ccc2c(c1)N(CCNS(C)(=O)=O)C(=O)C(C)(c1cc(F)cc(F)c1)O2 (stereo not given),200
7,CCc1nc(N)nc(N)c1-c1ccc2c(c1)N(CCCOC(F)(F)F)C(=O)C(C)(c1cc(F)cc(F)c1)O2 (stereo not given),7.8
8,CCc1nc(N)nc(N)c1-c1ccc2c(c1)N(CCCO)C(=O)C(C)(c1cc(F)cc(F)c1)O2 (stereo not given),28
9,CCc1nc(N)nc(N)c1-c1ccc2c(c1)N(CCNC(C)=O)C(=O)C(C)(C(F)(F)F)O2 (stereo not given),200
10,CCc1nc(N)nc(N)c1-c1ccc2c(c1)N(CCNC(C)=O)C(=O)C1(CC1)O2,24
11,CCc1nc(N)nc(N)c1-c1ccc2c(c1)N(CCCC#N)C(=O)C(C)(c1cc(F)cc(F)c1)O2 (stereo not given),3.5
12,CCc1nc(N)nc(N)c1-c1ccc2c(c1)N(CCCOC)C(=O)C(C)(c1ccc(F)c(F)c1)O2 (racemic),13
13,CCc1nc(N)nc(N)c1-c1ccc2c(c1)N(CCNC(C)=O)C(=O)C(C)(c1ccc(Cl)cc1)O2 (racemic),12
14,CCc1nc(N)nc(N)c1-c1ccc2c(c1)N(CCNC(C)=O)C(=O)C(C)(c1cc(F)ccc1F)O2 (racemic),2.3
15,CCc1nc(N)nc(N)c1-c1ccc2c(c1)N(CCCOC)C(=O)C(CC)(c1cc(F)cc(F)c1)O2 (racemic),2.6

# Second part, the compound after the results:
row,solubility [µg/mL],Structure (SMILES)
1,133,CCc1nc(N)nc(N)c1-c1ccc2c(c1)N(CCC(=O)NC)C(=O)C(C)(c1cc(F)cc(F)c1)O2 (stereo not given)
2,119,CCc1nc(N)nc(N)c1-c1ccc2c(c1)N(CCNC(C)=O)C(=O)[C@](C)(c1ccccc1)O2
3,59,CCOCCCN1C(=O)C(C)(c2cc(F)cc(F)c2)Oc2ccc(-c3c(N)nc(N)nc3CC)cc21 (stereo not given)
4,89,CCNC(=O)CN1C(=O)C(C)(c2cc(F)cc(F)c2)Oc2ccc(-c3c(N)nc(N)nc3CC)cc21 (stereo not given)
5,34,CCc1nc(N)nc(N)c1-c1ccc2c(c1)N(CCCOC)C(=O)C(C)(C)O2
6,59,CCc1nc(N)nc(N)c1-c1ccc2c(c1)N(CCCCO)C(=O)C(C)(c1cc(F)cc(F)c1)O2 (stereo not given)
7,5.2,CCc1nc(N)nc(N)c1-c1ccc2c(c1)N(CCCC(F)(F)F)C(=O)C(C)(c1cc(F)cc(F)c1)O2 (racemic)
8,12,CCc1nc(N)nc(N)c1-c1ccc2c(c1)N(CCNC(C)=O)C(=O)C(C)(c1cccc(C(F)(F)F)c1)O2 (racemic)
9,133,CCc1nc(N)nc(N)c1-c1ccc2c(c1)N(CCNC(C)=O)C(=O)C(C)(c1cccc(Cl)c1)O2 (racemic)
10,87,CCc1nc(N)nc(N)c1-c1ccc2c(c1)N(CCCOC)C(=O)C(C)(c1cc(F)cc(F)c1)O2 (stereo in doubt; 25)
11,95,CCc1nc(N)nc(N)c1-c1ccc2c(c1)N(CCNC(C)=O)C(=O)C(C)(c1cc(F)cc(F)c1)O2 (stereo in doubt; 26)

# Experiment: in vivo
# Settings: rat, po, 10 mg/kg
# Remark: another data set of the same source
row,Structure (SMILES),Cmax [ng/mL]
1,CCc1nc(N)nc(N)c1-c1ccc2c(c1)N(CCCOC(F)(F)F)C(=O)C(C)(c1cc(F)cc(F)c1)O2 (stereo not given),200
2,CCc1nc(N)nc(N)c1-c1ccc2c(c1)N(CCCC(F)(F)F)C(=O)[C@](C)(c1cc(F)cc(F)c1)O2,380
3,CCc1nc(N)nc(N)c1-c1ccc2c(c1)N(CCCC#N)C(=O)C(C)(c1cc(F)cc(F)c1)O2 (stereo not given),237

# Second part, the compound after the results:
row,Cmax [ng/mL],Structure (SMILES)
1,280,CCc1nc(N)nc(N)c1-c1ccc2c(c1)N(CCNC(=O)OC)C(=O)C(C)(c1cc(F)cc(F)c1)O2 (stereo not given)
2,186,CCc1nc(N)nc(N)c1-c1ccc2c(c1)N(CCCCO)C(=O)C(C)(c1cc(F)cc(F)c1)O2 (stereo not given)
3,160,CCc1nc(N)nc(N)c1-c1ccc2c(c1)N(CCCC(F)(F)F)C(=O)C(C)(c1cc(F)cc(F)c1)O2 (racemic)

# Experiment: Cmax in rat at […], iv or […], po
# Assay type: ADME, organism-based
# Settings: in vivo
row,Cmax [ng/mL],Structure (SMILES)
1,< 5,CCOCCCN1C(=O)C(C)(c2cc(F)cc(F)c2)Oc2ccc(-c3c(N)nc(N)nc3CC)cc21 (stereo not given)
2,60,CCNC(=O)CN1C(=O)C(C)(c2cc(F)cc(F)c2)Oc2ccc(-c3c(N)nc(N)nc3CC)cc21 (stereo not given)

# Experiment: not given
# Settings: buffer, pH 6.5
row,solubility [µg/mL],Structure (SMILES)
1,87,CCc1nc(N)nc(N)c1-c1ccc2c(c1)N(CCCOC)C(=O)C(C)(c1cc(F)cc(F)c1)O2 (racemic)
2,133,CCc1nc(N)nc(N)c1-c1ccc2c(c1)N(CCNC(C)=O)C(=O)C(C)(c1cc(F)cc(F)c1)O2 (racemic)

# Experiment: Bioavailability in dog at 5 mg/kg, po
# Assay type: ADME, organism-based, Canis lupus familiaris
# Settings: in vivo
row,Structure (SMILES),bioavailability [%]
1,CCc1nc(N)nc(N)c1-c1ccc2c(c1)N(CCCC(F)(F)F)C(=O)[C@](C)(c1cc(F)cc(F)c1)O2,19
